Key:
[1] = tested on: Cisplatin-induced vomiting; experiment: Activity against CisPlatin-induced vomiting; type: in vivo, Suncus murinus; conditions: 30 min before Cisplatin 40 mg/kg i.p.; for Number of Vomiting (Episodes) (mean ± S.E.M.): 5 to 120 min, control 28.0 ± 6.7; for Latency (mean ± S.E.M.): time to first vomiting, control 35.1 ± 4.4
Experimental: b) Activity against CisPlatin-induced vomiting
Female and male Suncus murinus animals weighing 23 to 68 g were used, one group consisting of 5 to 10 animals. According to the method of Matsuki et al. (Japan J. Pharmacol., 48, 303 (1988)], the animals were isolated in metal mesh cage (one animal/one cage). One hour after, the test compound or physiological saline (control) was intraperitoneally administered (i.p.) in a volume of 0.1 ml/10 g of body weight. Further 30 minutes after administration of the test compound, Cisplatin (40 mg/kg) was intraperitoneally administered. After administration of Cisplatin, a time period (latency) for the first vomiting and the number of frequencies (episodes) of vomiting caused in the period of 5 to 120 minutes after administration were determined. The latency and the number of frequencies in the test compound administered group were compared with those in the control group. The test of significance was performed by Student's t-test.

ddY strain male mice = experiment: Acute toxicity (MLD, Minimum Lethal Dose); type: in vivo; conditions: 7 days observation
Experimental: The test compound was orally and intraperitoneally administered to ddY strain male mice weighing 20 to 25 g. MLD (Minimum Lethal Dose) was determined by observing the mortality for 7 days after the administration.

## CCCCn1c(=O)cc(C(=O)O[C@H]2C[C@H]3CC[C@@H](C2)N3C)c2ccccc21 [Compound 1Sa, Endo-(8-methyl-8-azabicyclo[3.2.1]oct-3-yl)-1-(n-butyl)-2-oxo-1,2-dihydro-4-quinolinecarboxylate]
[1]; 0.1 mg/kg i.p.
  Number of Vomiting (Episodes) (mean ± S.E.M.): 18.0 ± 1.6 Episodes
  Latency (mean ± S.E.M.): 44.3 ± 2.0 min
[1]; 0.5 mg/kg i.p., *p < 0.05
  Number of Vomiting (Episodes) (mean ± S.E.M.): 6.8 ± 2.0 Episodes
  Latency (mean ± S.E.M.): 71.5 ± 12.9 min
ddY strain male mice; i.p.
  MLD (Minimum Lethal Dose): 100 mg/kg
ddY strain male mice; p.o.
  MLD (Minimum Lethal Dose): 200 mg/kg

## CCCCCn1c(=O)cc(C(=O)O[C@H]2C[C@H]3CC[C@@H](C2)N3C)c2ccccc21 [Compound 16Sa, Endo-(8-methyl-8-azabicyclo[3.2.1]oct-3-yl)2-oxo-1-n-pentyl-1,2-dihydro-4-quinolinecarboxylate]
ddY strain male mice; i.p.
  MLD (Minimum Lethal Dose): 100 mg/kg
ddY strain male mice; p.o.
  MLD (Minimum Lethal Dose): 300 mg/kg

## CCCCn1c(=O)cc(C(=O)N[C@H]2C[C@H]3CC[C@@H](C2)N3C)c2ccccc21 [Compound 6Sa, Endo-N-(8-methyl-8-azabicyclo[3.2.1]oct-3-yl)-1-(n-butyl)-2-oxo-1,2-dihydro-4-quinolinecarboxamide]
ddY strain male mice; i.p.
  MLD (Minimum Lethal Dose): > 100 mg/kg
ddY strain male mice; p.o.
  MLD (Minimum Lethal Dose): > 300 mg/kg

## CN1[C@@H]2CC[C@H]1C[C@@H](NC(=O)c1cc(=O)n(C)c3ccccc13)C2 [Compound 8Sa, Endo-N-(8-methyl-8-azabicyclo[3.2.1]oct-3-yl)-1-methyl-2-oxo-1,2-dihydro-4-quinolinecarboxamide]
ddY strain male mice; i.p.
  MLD (Minimum Lethal Dose): > 100 mg/kg
ddY strain male mice; p.o.
  MLD (Minimum Lethal Dose): > 300 mg/kg

## CC(C)CCn1c(=O)cc(C(=O)O[C@H]2C[C@H]3CC[C@@H](C2)N3C)c2ccccc21 [Compound 15Sa, Endo-(8-methyl-8-azabicyclo[3.2.1]oct-3-yl) 1-isopentyl-2-oxo-1,2-dihydro-4-quinolinecarboxylate]
ddY strain male mice; i.p.
  MLD (Minimum Lethal Dose): 100 mg/kg
ddY strain male mice; p.o.
  MLD (Minimum Lethal Dose): 300 mg/kg

## CCCCCCn1c(=O)cc(C(=O)O[C@H]2C[C@H]3CC[C@@H](C2)N3C)c2ccccc21 [Compound 17Sa, Endo-(8-methyl-8-azabicyclo[3.2.1]oct-3-yl) 1-(n-hexyl)-2-oxo-1,2-dihydro-4-quinolinecarboxylate]
ddY strain male mice; i.p.
  MLD (Minimum Lethal Dose): 100 mg/kg
ddY strain male mice; p.o.
  MLD (Minimum Lethal Dose): > 300 mg/kg

## CCCn1c(=O)cc(C(=O)N[C@H]2C[C@H]3CC[C@@H](C2)N3C)c2ccccc21 [Compound 7Sa, Endo-N-(8-methyl-8-azabicyclo[3.2.1]oct-3-yl)-1-(n-propyl)-2-oxo-1,2-dihydro-4-quinolinecarboxamide]
ddY strain male mice; i.p.
  MLD (Minimum Lethal Dose): > 100 mg/kg
ddY strain male mice; p.o.
  MLD (Minimum Lethal Dose): > 300 mg/kg

## CC(C)n1c(=O)cc(C(=O)O[C@H]2C[C@H]3CC[C@@H](C2)N3C)c2ccccc21 [Compound 3Sa, Endo-(8-methyl-8-azabicyclo[3.2.1]oct-3-yl)l-isopropyl-2-oxo-1,2-dihydro-4-quinolinecarboxylate]
ddY strain male mice; i.p.
  MLD (Minimum Lethal Dose): 100 mg/kg
ddY strain male mice; p.o.
  MLD (Minimum Lethal Dose): 200 mg/kg

## CCCCn1c(=O)cc(C(=O)N[C@@H]2C[C@H]3CC[C@@H](C2)N3C)c2ccccc21 [Compound 9Sa, Exo-N-(8-methyl-8-azabicyclo[3.2.1]oct-3-yl)-1-(n-butyl)-2-oxo-1,2-dihydro-4-quinolinecarboxamide]
ddY strain male mice; i.p.
  MLD (Minimum Lethal Dose): 100 mg/kg
ddY strain male mice; p.o.
  MLD (Minimum Lethal Dose): > 300 mg/kg

## CN1[C@@H]2CC[C@H]1C[C@@H](OC(=O)c1c(O)c3cccnc3n(-c3ccccc3)c1=O)C2 [Compound 24Sa, Endo-(8-methyl-8-azabicyclo[3.2.1]oct-3-yl) 4-hydroxy-2-oxo-1-phenyl-1,2-dihydro-1,8-naphthylidine-3-carboxylate]
ddY strain male mice; i.p.
  MLD (Minimum Lethal Dose): > 100 mg/kg
ddY strain male mice; p.o.
  MLD (Minimum Lethal Dose): > 300 mg/kg

## CCCCn1c(=O)cc(C(=O)N[C@H]2C[C@H]3CCC[C@@H](C2)N3C)c2ccccc21 [Compound 10Sa, Endo-N-(9-methyl-9-azabicyclo[3.3.1]non-3-yl)-1-(n-butyl)-2-oxo-1,2-dihydro-4-quinolinecarboxamide]
ddY strain male mice; i.p.
  MLD (Minimum Lethal Dose): 100 mg/kg
ddY strain male mice; p.o.
  MLD (Minimum Lethal Dose): 300 mg/kg

## CCCCn1c(=O)c(CC)c(C(=O)O[C@H]2C[C@H]3CC[C@@H](C2)N3C)c2ccccc21 [Compound 20Sa, Endo-(8-methyl-8-azabicyclo[3.2.1)oct-3-yl) 1-(n-butyl)-3-ethyl-2-oxo-1,2-dihydro-4-quinolinecarboxylate]
ddY strain male mice; i.p.
  MLD (Minimum Lethal Dose): 100 mg/kg
ddY strain male mice; p.o.
  MLD (Minimum Lethal Dose): 200 mg/kg

## CCn1c(=O)cc(C(=O)O[C@H]2C[C@H]3CC[C@@H](C2)N3C)c2ccccc21 [Compound 13Sa, Endo-(8-methyl-8-azabicyclo[3.2.1]oct-3-yl) 1-ethyl-2-oxo-1,2-dihydro-4-quinolinecarboxylate]
ddY strain male mice; i.p.
  MLD (Minimum Lethal Dose): 100 mg/kg
ddY strain male mice; p.o.
  MLD (Minimum Lethal Dose): 200 mg/kg

## CCCCn1c(=O)c(C(=O)N[C@H]2C[C@H]3CC[C@@H](C2)N3C)c(O)c2cccnc21 [Compound 32Sa, Endo-N-(8-methyl-azabicyclo[3.2.1]oct-3-yl)-1-(butyl)-4-hydroxy-2-oxo-1,2-dihydro-1,8-naphthyridine-3-carboxamide]
ddY strain male mice; i.p.
  MLD (Minimum Lethal Dose): 100 mg/kg
ddY strain male mice; p.o.
  MLD (Minimum Lethal Dose): > 300 mg/kg

## CCCCn1c(=O)c(C(=O)N[C@H]2C[C@H]3CC[C@@H](C2)N3C)c(O)c2ccccc21 [Compound 11Sa, Endo-N-(8-methyl-8-azabicyclo[3.2.1]oct-3-yl)-1-(n-butyl)-4-hydroxy-2-oxo-1,2-dihydro-3-quinolinecarboxamide]
ddY strain male mice; i.p.
  MLD (Minimum Lethal Dose): > 100 mg/kg
ddY strain male mice; p.o.
  MLD (Minimum Lethal Dose): > 300 mg/kg

## CCCn1c(=O)cc(C(=O)O[C@H]2C[C@H]3CC[C@@H](C2)N3C)c2ccccc21 [Compound 2Sa, Endo-(8-methyl-B-azabicyclo[3.2.1]oct-3-yl)2-oxo-l-(n-propyl)-1,2-dihydro-4-quinolinecarboxylate]
ddY strain male mice; i.p.
  MLD (Minimum Lethal Dose): 100 mg/kg
ddY strain male mice; p.o.
  MLD (Minimum Lethal Dose): 200 mg/kg

## CCCCn1c(=O)c(O)c(C(=O)N[C@H]2C[C@H]3CC[C@@H](C2)N3C)c2ccccc21 [Compound 29Sa, Endo-N-(8-methyl-8-azabicyclo[3.2.1]oct-3-yl)-1-n-butyl-3-hydroxy-2-oxo-1,2-dihydro-4-quinolinecarboxamide]
ddY strain male mice; i.p.
  MLD (Minimum Lethal Dose): > 100 mg/kg
ddY strain male mice; p.o.
  MLD (Minimum Lethal Dose): > 300 mg/kg

## CN1[C@@H]2CC[C@H]1C[C@@H](NC(=O)c1c(O)c3ccccc3n(-c3ccccc3)c1=O)C2 [Compound 30Sa, Endo-N-(8-methyl-8-azabicyclo[3.2.1]oct-3-yl)-4-hydroxy-2-oxo-1-phenyl-1,2-dihydro-3-quinolinecarboxamide]
ddY strain male mice; i.p.
  MLD (Minimum Lethal Dose): 100 mg/kg
ddY strain male mice; p.o.
  MLD (Minimum Lethal Dose): > 300 mg/kg

## CN1[C@@H]2CC[C@H]1C[C@@H](OC(=O)c1cc(=O)n(Cc3ccccc3)c3ccccc13)C2 [Compound 18Sa, Endo-(8-methyl-8-azabicyclo[3.2.1]oct-3-yl) 1-benzyl-2-oxo-1,2-dihydro-4-quinolinecarboxylate]
ddY strain male mice; i.p.
  MLD (Minimum Lethal Dose): 100 mg/kg
ddY strain male mice; p.o.
  MLD (Minimum Lethal Dose): > 300 mg/kg

## CN1[C@@H]2CC[C@H]1C[C@@H](OC(=O)c1cc(=O)n(-c3ccccc3)c3ccccc13)C2 [Compound 19Sa, Endo-(8-methyl-8-azabicyclo[3.2.1]oct-3-yl) 2-oxo-1-phenyl-1,2-dihydro-4-quinolinecarboxylate]
ddY strain male mice; i.p.
  MLD (Minimum Lethal Dose): 100 mg/kg
ddY strain male mice; p.o.
  MLD (Minimum Lethal Dose): 200 mg/kg

## CC(C)Cn1c(=O)cc(C(=O)O[C@H]2C[C@H]3CC[C@@H](C2)N3C)c2ccccc21 [Compound 14Sa, Endo-(8-methyl-8-azabicyclo[3.2.1]oct-3-yl) 1-isobutyl-2-oxo-1,2-dihydro-4-quinolinecarboxylate]
ddY strain male mice; i.p.
  MLD (Minimum Lethal Dose): 50 mg/kg
ddY strain male mice; p.o.
  MLD (Minimum Lethal Dose): 200 mg/kg

Source: patent US5248684A, “Certain 2-oxo-quinoline carboxylates or corresponding carboxamides useful as anti-emetics and suppressants of migraine” (Kyowa Hakko Kogyo Co., Ltd., priority 1990, dated 1993)
